{"source": "PubChem BioAssay (NCI)", "experiment_in_all_cases": "NCI tumour cell line growth inhibition, 48 h", "key": {"[1]": {"test_system": "KM12 colon"}, "[2]": {"test_system": "K-562 leukemia"}, "[3]": {"test_system": "UACC-62 melanoma"}, "[4]": {"test_system": "ACHN renal"}, "[5]": {"test_system": "NCI-H522 lung"}, "[6]": {"test_system": "HOP-92 NSCLC"}, "[7]": {"test_system": "HS 578T breast"}, "[8]": {"test_system": "HL-60(TB) leukemia"}, "[9]": {"test_system": "OVCAR-8 ovarian"}, "[10]": {"test_system": "TK-10 renal"}, "[11]": {"test_system": "EKVX NSCLC"}, "[12]": {"test_system": "SNB-19 CNS"}, "[13]": {"test_system": "786-0 renal"}, "[14]": {"test_system": "PC-3 prostate"}, "[15]": {"test_system": "RPMI-8226 leukemia"}, "[16]": {"test_system": "UACC-257 melanoma"}, "[17]": {"test_system": "RXF 393 renal"}, "[18]": {"test_system": "MOLT-4 leukemia"}, "[19]": {"test_system": "HCT-15 colon"}, "[20]": {"test_system": "MALME-3M melanoma"}, "[21]": {"test_system": "SNB-75 CNS"}, "[22]": {"test_system": "A549 NSCLC"}, "[23]": {"test_system": "M14 melanoma"}, "[24]": {"test_system": "SF-268 CNS"}, "[25]": {"test_system": "OVCAR-4 ovarian"}, "[26]": {"test_system": "SN12C renal"}, "[27]": {"test_system": "SK-MEL-5 melanoma"}, "[28]": {"test_system": "HOP-62 NSCLC"}}, "note": "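Results reflect a 48-hour exposure of cells in 96-well plates to compound at five concentrations. Here, GI50 denotes the concentration required for 50% inhibition of growth. TGI marks complete inhibition of growth.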"}
{"smiles": "CCOCCOC[C@H]1CCCN(c2ccnc3sc(C(N)=O)c(N)c23)C1", "values": [{"measurement": "GI50", "setting": "[1]", "value": 36.6, "unit": "µM"}, {"measurement": "TGI", "setting": "[1]", "value": "> 100", "unit": "µM"}, {"measurement": "GI50", "setting": "[2]", "value": 8.44, "unit": "µM"}, {"measurement": "TGI", "setting": "[2]", "value": "> 100", "unit": "µM"}, {"measurement": "GI50", "setting": "[3]", "value": 6.51, "unit": "µM"}, {"measurement": "TGI", "setting": "[3]", "value": "> 100", "unit": "µM"}, {"measurement": "GI50", "setting": "[4]", "value": 9.95, "unit": "µM"}, {"measurement": "TGI", "setting": "[4]", "value": "> 100", "unit": "µM"}, {"measurement": "GI50", "setting": "[5]", "value": 10.3, "unit": "µM"}, {"measurement": "TGI", "setting": "[5]", "value": "> 100", "unit": "µM"}, {"measurement": "GI50", "setting": "[6]", "value": 44.3, "unit": "µM"}, {"measurement": "TGI", "setting": "[6]", "value": "> 100", "unit": "µM"}, {"measurement": "GI50", "setting": "[7]", "value": 44.1, "unit": "µM"}, {"measurement": "TGI", "setting": "[7]", "value": "> 100", "unit": "µM"}, {"measurement": "GI50", "setting": "[8]", "value": 48.7, "unit": "µM"}, {"measurement": "TGI", "setting": "[8]", "value": "> 100", "unit": "µM"}, {"measurement": "GI50", "setting": "[9]", "value": 25.1, "unit": "µM"}, {"measurement": "TGI", "setting": "[9]", "value": "> 100", "unit": "µM"}, {"measurement": "GI50", "setting": "[10]", "value": "> 100", "unit": "µM"}, {"measurement": "TGI", "setting": "[10]", "value": "> 100", "unit": "µM"}, {"measurement": "GI50", "setting": "[11]", "value": 27.9, "unit": "µM"}, {"measurement": "TGI", "setting": "[11]", "value": "> 100", "unit": "µM"}, {"measurement": "GI50", "setting": "[12]", "value": "> 100", "unit": "µM"}, {"measurement": "TGI", "setting": "[12]", "value": "> 100", "unit": "µM"}, {"measurement": "GI50", "setting": "[13]", "value": "> 100", "unit": "µM"}, {"measurement": "TGI", "setting": "[13]", "value": "> 100", "unit": "µM"}, {"measurement": "GI50", "setting": "[14]", "value": 21.7, "unit": "µM"}, {"measurement": "TGI", "setting": "[14]", "value": "> 100", "unit": "µM"}, {"measurement": "GI50", "setting": "[15]", "value": 1650, "unit": "nM"}, {"measurement": "TGI", "setting": "[15]", "value": "> 100", "unit": "µM"}, {"measurement": "GI50", "setting": "[16]", "value": 12.4, "unit": "µM"}, {"measurement": "TGI", "setting": "[16]", "value": "> 100", "unit": "µM"}, {"measurement": "GI50", "setting": "[17]", "value": 47.8, "unit": "µM"}, {"measurement": "TGI", "setting": "[17]", "value": "> 100", "unit": "µM"}, {"measurement": "GI50", "setting": "[18]", "value": 10.1, "unit": "µM"}, {"measurement": "TGI", "setting": "[18]", "value": "> 100", "unit": "µM"}, {"measurement": "GI50", "setting": "[19]", "value": "> 100", "unit": "µM"}, {"measurement": "TGI", "setting": "[19]", "value": "> 100", "unit": "µM"}, {"measurement": "GI50", "setting": "[20]", "value": 86.6, "unit": "µM"}, {"measurement": "TGI", "setting": "[20]", "value": "> 100", "unit": "µM"}, {"measurement": "GI50", "setting": "[21]", "value": 63.9, "unit": "µM"}, {"measurement": "TGI", "setting": "[21]", "value": "> 100", "unit": "µM"}, {"measurement": "GI50", "setting": "[22]", "value": 77.4, "unit": "µM"}, {"measurement": "TGI", "setting": "[22]", "value": "> 100", "unit": "µM"}, {"measurement": "GI50", "setting": "[23]", "value": 63.1, "unit": "µM"}, {"measurement": "TGI", "setting": "[23]", "value": "> 100", "unit": "µM"}, {"measurement": "GI50", "setting": "[24]", "value": 56.4, "unit": "µM"}, {"measurement": "TGI", "setting": "[24]", "value": "> 100", "unit": "µM"}, {"measurement": "GI50", "setting": "[25]", "value": 13.5, "unit": "µM"}, {"measurement": "TGI", "setting": "[25]", "value": "> 100", "unit": "µM"}, {"measurement": "GI50", "setting": "[26]", "value": 29.8, "unit": "µM"}, {"measurement": "TGI", "setting": "[26]", "value": "> 100", "unit": "µM"}, {"measurement": "GI50", "setting": "[27]", "value": 4.05, "unit": "µM"}, {"measurement": "TGI", "setting": "[27]", "value": 36.9, "unit": "µM"}, {"measurement": "GI50", "setting": "[28]", "value": "> 100", "unit": "µM"}, {"measurement": "TGI", "setting": "[28]", "value": "> 100", "unit": "µM"}]}
